Values quoted from earlier work as cited in patent US11000594B2, “Composition comprising an organic liquid diluent and a cellulose ether of very low viscosity” (Dow Global Technologies LLC, priority 2012, dated 2021).
Values after ≈ are worked out from the molar mass of the structure shown.

water solubility: 8.54 µg/mL (≈ 24.2 µM)
Structure (SMILES): COC1=CC(=O)C[C@@H](C)[C@]12Oc1c(Cl)c(OC)cc(OC)c1C2=O [Griseofulvin]
